Assay results: patent US7348402B2, “Antimicrobial peptide, its analogs and antimicrobial composition comprising them” (priority 2002, dated 2008)
No end group written: not given here.

Legend:
Type in all cases: cell-based
[1] = tested on: Bacillus subtilis (ATCC 62037); conditions: ATCC 62037, 12 h
Source text: (§1) The microorganisms used in the present invention include Gram-positive bacteria such as Bacillus subtilis (ATCC 62037), Staphylococcus aureus (ATCC 15752) and Streptococcus mutans (ATCC 25175), Gram-negative bacteria such as Escherichia coli (ATCC 27325), Salmonella enteritidis (ATCC 15277) and Pseudomonas putida (ATCC 17426) and fungi such as Candida albicans (ATCC 10231), Saccharomyces cerevisiae (ATCC 44774) and Cryptococcus neoformans (ATCC 34881), obtained from American Type Culture Collection (ATCC).
(§2) The antimicrobial activity of the peptides prepared in Example 1 was determined against microorganisms by 96-well microdilution minimal inhibitory concentration assay. After overnight culturing the bacteria and fungi in trypticase soy broth (TSB) and Saboraud (SAB) at 37° C. and 30° C., respectively, they were inoculated in new media and cultured for 2 hours to exponential growth phase. After diluting the microorganisms to 10^5 per 1 ml, 190 μl was inoculated in each 96-well plate, and 10 μl of serially diluted peptides were added in each well.

[2] = tested on: Streptococcus mutans (ATCC 25175); conditions: ATCC 25175, 12 h
Source text: as §1, §2

[3] = tested on: Pseudomonas putida (ATCC 17426); conditions: ATCC 17426, 12 h
Source text: as §1, §2

[4] = tested on: Saccharomyces cerevisiae (ATCC 44774); conditions: ATCC 44774, 12 h
Source text: as §1, §2

[5] = tested on: Escherichia coli (ATCC 27325); conditions: ATCC 27325, 12 h
Source text: as §1, §2

[6] = tested on: Salmonella enteritidis (ATCC 15277); conditions: ATCC 15277, 12 h
Source text: as §1, §2

[7] = tested on: Cryptococcus neoformans (ATCC 34881); conditions: ATCC 34881, 12 h
Source text: as §1, §2

[8] = tested on: Candida albicans (ATCC 10231); conditions: ATCC 10231, 12 h
Source text: as §1, §2

[9] = tested on: Staphylococcus aureus (ATCC 15752); conditions: ATCC 15752, 12 h
Source text: as §1, §2

Substance	Minimum Inhibitory Concentration [1]	Minimum Inhibitory Concentration [2]	Minimum Inhibitory Concentration [3]	Minimum Inhibitory Concentration [4]	Minimum Inhibitory Concentration [5]	Minimum Inhibitory Concentration [6]	Minimum Inhibitory Concentration [7]	Minimum Inhibitory Concentration [8]	Minimum Inhibitory Concentration [9]
KLLKKLLKKLLKNWPIGKLLK [compound 55]	1 µg/mL	2 µg/mL	1 µg/mL	2 µg/mL	2 µg/mL	1 µg/mL	1 µg/mL	1 µg/mL	1 µg/mL
KLLKKLLKKLLKQWPIGKLLK [compound 38]	1 µg/mL	2 µg/mL	1 µg/mL	2 µg/mL	2 µg/mL	1 µg/mL	1 µg/mL	2 µg/mL	1 µg/mL
KLLKNWPIGKLLKKLLKKLLK [compound 21]	1 µg/mL	2 µg/mL	1 µg/mL	1 µg/mL	1 µg/mL	2 µg/mL	1 µg/mL	2 µg/mL	1 µg/mL
KLLKQWPIGKLLKKLLKKLLK [compound 4]	2 µg/mL	1 µg/mL	1 µg/mL	2 µg/mL	1 µg/mL	1 µg/mL	1 µg/mL	1 µg/mL	1 µg/mL
KLLRKLLRKLLRNWPIGKLLR [compound 63]	1 µg/mL	2 µg/mL	1 µg/mL	2 µg/mL	1 µg/mL	2 µg/mL	1 µg/mL	1 µg/mL	1 µg/mL
KLLRNWPIGKLLRKLLRKLLR [compound 29]	1 µg/mL	2 µg/mL	1 µg/mL	2 µg/mL	1 µg/mL	1 µg/mL	1 µg/mL	1 µg/mL	1 µg/mL
KLVKKLVKKLVKQWPIGKLVK [compound 42]	1 µg/mL	2 µg/mL	1 µg/mL	1 µg/mL	1 µg/mL	1 µg/mL	1 µg/mL	1 µg/mL	1 µg/mL
KLVKQWPIGKLVKKLVKKLVK [compound 8]	1 µg/mL	2 µg/mL	1 µg/mL	2 µg/mL	1 µg/mL	1 µg/mL	1 µg/mL	2 µg/mL	1 µg/mL
KLVRKLVRKLVRNFPVGKLVR [compound 68]	1 µg/mL	2 µg/mL	1 µg/mL	2 µg/mL	1 µg/mL	1 µg/mL	1 µg/mL	1 µg/mL	1 µg/mL
KLVRKLVRKLVRQFPVGKLVR [compound 51]	1 µg/mL	1 µg/mL	1 µg/mL	2 µg/mL	1 µg/mL	2 µg/mL	1 µg/mL	1 µg/mL	1 µg/mL
KLVRKLVRKLVRQWPIGKLVR [compound 50]	1 µg/mL	1 µg/mL	1 µg/mL	2 µg/mL	1 µg/mL	2 µg/mL	1 µg/mL	1 µg/mL	1 µg/mL
KLVRNFPVGKLVRKLVRKLVR [compound 34]	1 µg/mL	2 µg/mL	1 µg/mL	1 µg/mL	1 µg/mL	1 µg/mL	1 µg/mL	1 µg/mL	1 µg/mL
KLVRQFPVGKLVRKLVRKLVR [compound 17]	2 µg/mL	2 µg/mL	1 µg/mL	1 µg/mL	1 µg/mL	1 µg/mL	1 µg/mL	1 µg/mL	1 µg/mL
KLVRQWPIGKLVRKLVRKLVR [compound 16]	2 µg/mL	2 µg/mL	1 µg/mL	1 µg/mL	1 µg/mL	1 µg/mL	1 µg/mL	1 µg/mL	1 µg/mL
KLVRQWPIGKLVRKLVRKLVR-NH2 [compound 69]	1 µg/mL	1 µg/mL	1 µg/mL	2 µg/mL	1 µg/mL	2 µg/mL	1 µg/mL	1 µg/mL	1 µg/mL
